Where two headings read alike, the source gives them in different places.
Molecular target: Human VPS34 (Homo sapiens (Human), UniProt Q8NEB9)
Experiment: Human VPS34 enzyme assay (Adapta TR-FRET)
Assay type: biochemical
Details: read-out: Percent Inhibition

Sequence of Human VPS34 (Q8NEB9 whole entry): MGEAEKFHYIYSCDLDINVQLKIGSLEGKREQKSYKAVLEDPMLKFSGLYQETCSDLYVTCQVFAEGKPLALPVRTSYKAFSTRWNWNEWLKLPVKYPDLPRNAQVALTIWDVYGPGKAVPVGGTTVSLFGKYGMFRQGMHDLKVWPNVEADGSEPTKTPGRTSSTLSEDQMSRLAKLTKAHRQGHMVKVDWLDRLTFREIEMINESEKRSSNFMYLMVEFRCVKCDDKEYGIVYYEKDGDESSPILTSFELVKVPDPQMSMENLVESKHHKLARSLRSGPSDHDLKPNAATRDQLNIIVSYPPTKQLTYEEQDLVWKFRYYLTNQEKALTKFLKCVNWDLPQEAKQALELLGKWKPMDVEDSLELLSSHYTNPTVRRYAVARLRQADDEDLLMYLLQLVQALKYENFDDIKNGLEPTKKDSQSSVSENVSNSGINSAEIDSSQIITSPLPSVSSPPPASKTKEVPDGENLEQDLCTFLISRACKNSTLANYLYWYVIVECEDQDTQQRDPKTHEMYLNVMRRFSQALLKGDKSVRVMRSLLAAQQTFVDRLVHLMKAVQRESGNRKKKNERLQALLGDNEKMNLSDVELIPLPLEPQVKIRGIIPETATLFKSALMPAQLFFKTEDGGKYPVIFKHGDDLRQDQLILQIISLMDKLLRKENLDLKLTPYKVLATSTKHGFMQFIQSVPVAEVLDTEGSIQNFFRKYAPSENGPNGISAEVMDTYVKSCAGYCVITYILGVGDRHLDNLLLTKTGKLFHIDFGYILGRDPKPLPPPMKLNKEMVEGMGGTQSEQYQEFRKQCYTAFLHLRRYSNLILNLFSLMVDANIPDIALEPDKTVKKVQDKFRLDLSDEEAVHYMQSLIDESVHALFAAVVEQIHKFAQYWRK

inhibition at 1.11 µM (compound concentration 1.11 μM) [%] | SMILES | inhibition at 1.11 µM [%]
> 99 | CC(=O)Nc1cc(-c2cnc(N)c(C(=O)N3CCC3)c2)ccn1 [Compound I-200, N-[6-amino-5-(azetidin-1-ylcarbonyl)-3,4′-bipyridin-2′-yl]acetamide] | 
> 99 | CCc1ncc(-c2ccnc(NC(C)=O)c2)cc1NS(=O)(=O)c1ccc(F)cc1F [Compound I-201, N-(5-{[(2,4-difluorophenyl)sulfonyl]amino}-6-ethyl-3,4′-bipyridin-2′-yl)acetamide] | 
> 99 | CC(=O)Nc1cc(-c2cncc(N(CC3CC3)S(C)(=O)=O)c2)ccn1 [Compound I-202, N-{5-[(cyclopropylmethyl)(methylsulfonyl)amino]-3,4′-bipyridin-2′-yl}acetamide] | 
> 99 | CC(=O)Nc1cc(-c2cnc(C)c(NS(=O)(=O)c3ccsc3)c2)ccn1 [Compound I-203, N-{6-methyl-5-[(3-thienylsulfonyl)amino]-3,4′-bipyridin-2′-yl}acetamide] | 
> 99 | CC(=O)Nc1cc(-c2cnc(N)c(S(=O)(=O)Nc3cccnc3)c2)ccn1 [Compound I-204, N-[6-amino-5-(pyridin-3-ylsulfamoyl)-3,4′-bipyridin-2′-yl]acetamide] | 
> 99 | CC(=O)Nc1cc(-c2cnc(N)c(S(=O)(=O)Cc3cccnc3)c2)ccn1 [Compound I-205, N-{6-amino-5-[(pyridin-3-ylmethyl)sulfonyl]-3,4′-bipyridin-2′-yl}acetamide] | 
> 99 | CC(=O)Nc1cc(-c2cnc(C)c(NS(=O)(=O)c3ccc(F)cc3Cl)c2)ccn1 [Compound I-206, N-(5-{[(2-chloro-4-fluorophenyl)sulfonyl]amino}-6-methyl-3,4′-bipyridin-2′-yl)acetamide] | 
> 99 | CC(=O)Nc1cc(-c2cnc(N)c(S(=O)(=O)Nc3ccc(Cl)cc3)c2)ccn1 [Compound I-207, N-{6-amino-5-[(4-chlorophenyl)sulfamoyl]-3,4′-bipyridin-2′-yl}acetamide] | 
 | CC(=O)Nc1cc(-c2cnc(N)c(S(=O)(=O)CC3CC3)c2)ccn1 [Compound I-208] | > 99
49 | CC(=O)Nc1cc(-c2cnc3[nH]ncc3c2)c(C)cn1 [Compound I-209, N-[5-methyl-4-(1H-pyrazolo[3,4-b]pyridin-5-yl)pyridin-2-yl]acetamide] | 
> 99 | CC(=O)Nc1cc(-c2cnc(N)c(C(=O)NC3CCOCC3)c2)ccn1 [Compound I-210, 2′-acetamido-6-amino-N-(tetrahydro-2H-pyran-4-yl)-3,4′-bipyridine-5-carboxamide] | 
> 99 | CC(=O)Nc1cc(-c2cnc(C)c(NS(=O)(=O)c3ccccc3C)c2)ccn1 [Compound I-211, N-(6-methyl-5-{[(2-methylphenyl)sulfonyl]amino}-3,4′-bipyridin-2′-yl)acetamide] | 
95 | CC(=O)Nc1cc(-c2cnc(C)c(N(C)S(=O)(=O)C3CC3)c2)ccn1 [Compound I-212, N-{5-[(cyclopropylsulfonyl)(methyl)amino]-6-methyl-3,4′-bipyridin-2′-yl}acetamide] | 
> 99 | CC(=O)Nc1cc(-c2cnc(Cl)c(C(=O)N(C)C)c2)ccn1 [Compound I-213, 2′-acetamido-6-chloro-N,N-dimethyl-3,4′-bipyridine-5-carboxamide] | 
> 99 | CC(=O)Nc1cc(-c2cnc(C)c(NS(=O)(=O)N3CCCCC3)c2)ccn1 [Compound I-214, N-{6-methyl-5-[(piperidin-1-ylsulfonyl)amino]-3,4′-bipyridin-2′-yl}acetamide] | 
99 | Cc1nccc(Nc2cc(-c3cnc(Cl)c(S(=O)(=O)NC4CCC4)c3)ccn2)n1 [Compound I-215, 6-chloro-N-cyclobutyl-2′-((2-methylpyrimidin-4-yl)amino)-[3,4′-bipyridine]-5-sulfonamide] | 
97 | N=C(N)NC(=O)c1cc(-c2ccnc(Nc3ccncn3)c2)cnc1N [Compound I-216, 6-Amino-N-carbamimidoyl-2′-(pyrimidin-4-ylamino)-3,4′-bipyridine-5-carboxamide] | 
